In ChEMBL document CHEMBL3808385, “Synthesis, antitumor evaluation and molecular docking studies of [1,2,4]triazolo[4,3-b][1,2,4,5]tetrazine derivatives” (Bioorg Med Chem Lett, 2016):

Assays:
[1] = Cytotoxicity against human HL60 cells assessed as cell growth inhibition after 72 hrs by MTT assay; format: functional, cell-based; details: HL-60, 72 h
[2] = test system: BeWo; assay: Cytotoxicity against human Bewo cells assessed as cell growth inhibition after 72 hrs by MTT assay; format: functional, cell-based
[3] = test system: MCF7; assay: Cytotoxicity against human MCF7 cells assessed as cell growth inhibition after 72 hrs by MTT assay; format: functional, cell-based; details: MCF7, 72 h
[4] = target: Hepatocyte growth factor receptor (Homo sapiens, UniProt P08581); assay: Inhibition of cMET (unknown origin) using TK substrate-biotin as substrate preincubated with compound followed by substrate addition for 40 mins measured after 1 hr by HTRF assay
Sequence of Hepatocyte growth factor receptor (P08581 whole entry): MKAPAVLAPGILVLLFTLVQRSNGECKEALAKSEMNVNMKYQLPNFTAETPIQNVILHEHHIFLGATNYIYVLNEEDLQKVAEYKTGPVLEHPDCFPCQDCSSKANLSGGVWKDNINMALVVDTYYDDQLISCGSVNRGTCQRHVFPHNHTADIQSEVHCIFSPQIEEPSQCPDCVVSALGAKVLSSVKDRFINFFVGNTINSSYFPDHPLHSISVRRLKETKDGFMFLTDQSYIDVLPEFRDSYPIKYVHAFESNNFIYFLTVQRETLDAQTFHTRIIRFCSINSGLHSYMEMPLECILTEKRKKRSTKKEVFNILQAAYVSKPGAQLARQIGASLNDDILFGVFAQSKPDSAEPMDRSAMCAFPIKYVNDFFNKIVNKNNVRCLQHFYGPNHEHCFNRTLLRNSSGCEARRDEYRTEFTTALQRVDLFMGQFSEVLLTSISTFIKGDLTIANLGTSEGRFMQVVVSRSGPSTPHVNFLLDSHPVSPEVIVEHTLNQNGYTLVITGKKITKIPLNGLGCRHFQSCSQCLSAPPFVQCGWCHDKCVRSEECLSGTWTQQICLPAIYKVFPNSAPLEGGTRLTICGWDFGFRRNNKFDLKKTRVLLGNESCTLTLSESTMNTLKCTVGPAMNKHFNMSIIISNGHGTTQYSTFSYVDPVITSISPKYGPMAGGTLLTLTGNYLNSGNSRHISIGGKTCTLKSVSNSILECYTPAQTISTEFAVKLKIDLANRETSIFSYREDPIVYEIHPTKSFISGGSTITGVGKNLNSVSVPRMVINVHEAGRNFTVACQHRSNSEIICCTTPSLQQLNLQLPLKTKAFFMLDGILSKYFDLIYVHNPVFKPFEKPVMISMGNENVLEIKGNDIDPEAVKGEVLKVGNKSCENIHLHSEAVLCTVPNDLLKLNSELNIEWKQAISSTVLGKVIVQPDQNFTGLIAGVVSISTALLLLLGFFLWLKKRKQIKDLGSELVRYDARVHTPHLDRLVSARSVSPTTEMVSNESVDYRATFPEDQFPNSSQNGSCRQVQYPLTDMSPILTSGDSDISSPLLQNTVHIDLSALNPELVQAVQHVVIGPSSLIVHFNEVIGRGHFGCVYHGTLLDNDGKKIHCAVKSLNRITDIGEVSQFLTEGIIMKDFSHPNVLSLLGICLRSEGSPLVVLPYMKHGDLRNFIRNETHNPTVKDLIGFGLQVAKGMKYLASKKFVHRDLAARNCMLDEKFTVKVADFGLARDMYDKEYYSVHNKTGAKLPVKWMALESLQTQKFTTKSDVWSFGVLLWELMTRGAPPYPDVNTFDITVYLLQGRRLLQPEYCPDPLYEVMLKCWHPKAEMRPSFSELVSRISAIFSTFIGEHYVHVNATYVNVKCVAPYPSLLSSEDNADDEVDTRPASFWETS

Molecule `CC(=O)N1CCN(c2nnc3nncn3n2)CC1` has an IC50 [1] of 14.7 µM, an IC50 [2] of 13.1 µM and an IC50 [3] of 13.9 µM.
Work on `O=C(C1CCCCC1)N1CCN(c2nnc3nncn3n2)CC1` yielded an IC50 [1] of 1.16 µM, an IC50 [2] of 1.9 µM and an IC50 [3] of 1.26 µM. The IC50 [4] was 7.9 µM.
In the case of `Nc1nnc2nncn2n1`, the IC50 [1] is reported as 68.5 µM, the IC50 [2] is reported as 17.3 µM and the IC50 [3] is reported as 46.5 µM.
Molecule `CN1CCN(c2nnc3nncn3n2)CC1` has an IC50 [1] of 8.54 µM, an IC50 [2] of 7.99 µM and an IC50 [3] of 21.6 µM.
Molecule `CCC(=O)N1CCN(c2nnc3nncn3n2)CC1` has an IC50 [1] of 10.1 µM, an IC50 [2] of 13.7 µM and an IC50 [3] of 14.8 µM.
Molecule `O=C(c1ccc([N+](=O)[O-])cc1)N1CCN(c2nnc3nncn3n2)CC1` has an IC50 [1] of 17.2 µM, an IC50 [2] of 3.1 µM and an IC50 [3] of 4.53 µM.
Molecule `c1ccc(CN2CCN(c3nnc4nncn4n3)CC2)cc1` has an IC50 [1] of 14.2 µM, an IC50 [2] of 5.1 µM and an IC50 [3] of 27.3 µM.
With `CN(C)c1nnc2nncn2n1` the IC50 [1] was 4.84 µM, the IC50 [2] was 0.61 µM and the IC50 [3] was 7.76 µM.
For `CCCCC(=O)N1CCN(c2nnc3nncn3n2)CC1`, the IC50 [1] was 3.13 µM, the IC50 [2] was 1.72 µM and the IC50 [3] was 2.76 µM.
In the case of `c1nnc2nnc(NC3CCCC3)nn12`, the IC50 [1] is reported as 38.1 µM, the IC50 [2] is reported as 34.6 µM and the IC50 [3] is reported as 88.2 µM.
`O=C(Cc1ccccc1)N1CCN(c2nnc3nncn3n2)CC1` gave an IC50 [1] of 1.85 µM, an IC50 [2] of 2.77 µM and an IC50 [3] of 3.08 µM.
Molecule `c1nnc2nnc(N3CCCC3)nn12` has an IC50 [1] of 24.4 µM, an IC50 [2] of 4.29 µM and an IC50 [3] of 5.13 µM.
With `O=C(c1ccccc1)N1CCN(c2nnc3nncn3n2)CC1` the IC50 [1] was 4.67 µM, the IC50 [2] was 5.87 µM and the IC50 [3] was 8.38 µM.
`Cc1ccc(C(=O)N2CCN(c3nnc4nncn4n3)CC2)cc1` gave an IC50 [1] of 9.31 µM, an IC50 [2] of 14.3 µM and an IC50 [3] of 15.9 µM.
Molecule `CC(C)(C)C(=O)N1CCN(c2nnc3nncn3n2)CC1` has an IC50 [1] of 1.38 µM, an IC50 [2] of 2.41 µM and an IC50 [3] of 5.51 µM.
Molecule `CC(C)C(=O)N1CCN(c2nnc3nncn3n2)CC1` has an IC50 [1] of 1.61 µM, an IC50 [2] of 1.09 µM and an IC50 [3] of 1.81 µM. For the same molecule, the IC50 [4] was 23.7 µM.
